Positions of bridges follow the written chain, without caps; N, C: chain ends. Non-standard residues stand in square brackets, D forms with d. Residues, ends and D or L forms follow the SMILES beside them. *: point of attachment. X1 = CC[C@H](C)CCCCC(=O)*; Dab = NCC[C@H](N)C(=O)O
Experiments:
[1] = Steady-state plasma concentrations of polymyxin B (total of B1, B2, B1-Ile) by LC-MS/MS; format: in vivo; settings: human, iv, read-out: OUT (observed polymyxin B plasma concentration)
Description: We gather data from critically ill patients (≥18 years old) who were given intravenous drip polymyxin B treatment with blood concentration monitoring at the hospital from November 2021 to September 2022. The attending physician decided to administer polymyxin B. At the same time, patients who received continuous renal replacement therapy (CRRT) (n = 10) or extracorporeal membrane oxygenation (ECMO) (n = 2) at the time of blood collection were excluded. Patients’ information, including gender, age, WT, serum creatinine (Scr), CCR, ALB, APACHE-II, infection diagnosis, and pathogenic bacteria, were obtained from the electronic system for medical records. CCR was generated by adopting the Cockcroft—Gault equation with WT and age ([Cucci et al., 2022]). The Ethical Committees of the Second Affiliated Hospital of the South China University of Technology authorized the study (K-2022-020-01).
Patients were treated with polymyxin B, and plasma samples were collected ≥ 48 h after the treatment. Each patient contributed clinical samples, of which 37.5% (n = 24) were sampled with troughs (within 1 h before administration), 35.9% (n = 23) were sampled with peaks (within 1 h after the end of the infusion), and 26.6% (n = 17) were sampled at 6-8 h after the infusion. The dosing regimens of polymyxin B were a loading dose of 100 mg–150 mg and a maintenance dose of 50 mg–75 mg q12h, and the infusion duration was about 1–2 h. In preparation for analysis, samples were centrifuged for 10 min at 3000 r min^-1 after collection, and the upper plasma after centrifugation was stored at −20°C.
According to previous studies, total polymyxin B1, polymyxin B2, and polymyxin B1-Ile concentrations in human blood plasma were quantified using LC-MS/MS ([Meng et al., 2016]; [Hee et al., 2017]). The standard used in our experiments was the USP standard with the batch number of R104F0. The chromatographic column was the Kinetex C18 (3 μm × 2.1 mm×100 mm. Phenomenex). A: B mobile phase was 0.1% formic acid to acetonitrile. With changes in the linear velocity ratio, gradient elution was as follows: 15% −15% B, 0–2.0 min; 15%–10% B, 2.01–4.0 min; 10%–30% B, 4.01–5.0 min; 15% B, 5.01 min; and 15%–15% B, 5.02–10 min. The flow rate was constrained to 0.8 mL min^-1, and the column temperature was set to 40°C. The parent/daughter ion mass ratios used in the mass spectrometry were m/z 602.6/241.2 (polymyxin B1 and B1-Ile) and m/z 595.6/202.1 (polymyxin B2). Plasma samples (100 μL) were collected from centrifuged blood samples, mixed with 500 μL precipitant (acetonitrile with 6.67% formic acid) and vortexed well for 1 min. The lower limit of quantification (LLOQ) of the bioanalytical method used for quantifying polymyxin B1, B2, and B1-Ile concentrations was 0.19, 0.02 and 0.02 mg L^-1, respectively. The linear relationships of polymyxin B1, B2, and B1-Ile concentrations in the range of 0.19–24.13 mg L^-1, 0.02–2.7 mg L^-1 and 0.02–2.38 mg L^-1 were considered good (R^2 = 0.99677, R^2 = 0.99656, R^2 = 0.99484) and the accuracy was within 95.3%–105.3%, 92.2%–104.8%, and 95.8%–105.4%. […] Finally, 200 μL of the supernatant from the centrifugation of the combination at 14,000 r min^-1 for 10 min was employed to measure the amounts of polymyxin B.

[2] = critically ill patients; ref Ye et al., 2022; cited from earlier work
Description: Over the last decade, more pathogenic bacteria have developed resistance, making many first-line antibiotics ineffective against infections ([Mohapatra et al., 2021]). Polymyxins were used extensively as salvage therapeutic agents for combating multidrug-resistant gram-negative bacteria (MDR-GNB) infections ([Falagas et al., 2021]). […] These specific physiolog ...

Structure (SMILES): CC[C@H](C)CCCCC(=O)N[C@@H](CCN)C(=O)N[C@H](C(=O)N[C@@H](CCN)C(=O)N[C@H]1CCNC(=O)[C@H]([C@@H](C)O)NC(=O)[C@H](CCN)NC(=O)[C@H](CCN)NC(=O)[C@H](CC(C)C)NC(=O)[C@@H](Cc2ccccc2)NC(=O)[C@H](CCN)NC1=O)[C@@H](C)O [polymyxin B] (X1-[Dab]T[Dab][Dab][Dab][dF]L[Dab][Dab]T; lactam 4-C)
- level at 325 h ([1]; patient ID 3, TIME 325, DOSE 100 at 0 then 50 from 12, ADDL 27, II 12, DUR 1, WT 57, CCR 61.5, ALB 33.8, APACHE 21, single sample): 6600 ng/mL
- level at 330 h ([1]; patient ID 3, TIME 330, DOSE 100 at 0 then 50 from 12, ADDL 27, II 12, DUR 1, WT 57, CCR 61.5, ALB 33.8, APACHE 21, single sample): 2930 ng/mL
- level at 336 h ([1]; patient ID 3, TIME 336, DOSE 100 at 0 then 50 from 12, ADDL 27, II 12, DUR 1, WT 57, CCR 61.5, ALB 33.8, APACHE 21, single sample): 3140 ng/mL
- level at 59 h ([1]; patient ID 4, TIME 59, DOSE 100 at 0 then 50 every 12 to 48, DUR 1, WT 58, CCR 61.95, ALB 25.5, APACHE 28, single sample): 863 ng/mL
- level at 64.5 h ([1]; patient ID 4, TIME 64.5, DOSE 100 at 0 then 50 every 12 to 60, DUR 1, WT 58, CCR 61.95, ALB 25.5, APACHE 28, single sample): 2330 ng/mL
- level at 167.9 h ([1]; patient ID 5, TIME 167.9, DOSE 100 at 0 then 50 from 12, ADDL 15, II 12, DUR 1, WT 60, CCR 41.15, ALB 36.1, APACHE 21, single sample): 2900 ng/mL
- level at 182 h ([1]; patient ID 5, TIME 182, DOSE 100 at 0 then 50 from 12, ADDL 15, II 12, DUR 1, WT 60, CCR 41.15, ALB 36.1, APACHE 21, single sample): 4510 ng/mL
- level at 186 h ([1]; patient ID 5, TIME 186, DOSE 100 at 0 then 50 from 12, ADDL 15, II 12, DUR 1, WT 60, CCR 41.15, ALB 36.1, APACHE 21, single sample): 3290 ng/mL
- level at 73.25 h ([1]; patient ID 10, TIME 73.25, DOSE 100 at 0 then 50 every 12 to 72, DUR 1, WT 62, CCR 72.12, ALB 33.9, APACHE 17, single sample): 6730 ng/mL
- level at 79 h ([1]; patient ID 10, TIME 79, DOSE 100 at 0 then 50 every 12 to 72, DUR 1, WT 62, CCR 72.12, ALB 33.9, APACHE 17, single sample): 6230 ng/mL
- level at 84.42 h ([1]; patient ID 10, TIME 84.42, DOSE 100 at 0 then 50 every 12 to 72, DUR 1, WT 62, CCR 72.12, ALB 33.9, APACHE 17, single sample): 3890 ng/mL
- level at 98 h ([1]; patient ID 11, TIME 98, DOSE 100 at 0 then 50 every 12 to 96, DUR 2, WT 55, CCR 67.29, ALB 30.9, APACHE 46, single sample): 5200 ng/mL
- level at 102 h ([1]; patient ID 11, TIME 102, DOSE 100 at 0 then 50 every 12 to 96, DUR 2, WT 55, CCR 67.29, ALB 30.9, APACHE 46, single sample): 2530 ng/mL
- level at 105.5 h ([1]; patient ID 11, TIME 105.5, DOSE 100 at 0 then 50 every 12 to 96, DUR 2, WT 55, CCR 67.29, ALB 30.9, APACHE 46, single sample): 2180 ng/mL
- level at 145 h ([1]; patient ID 13, TIME 145, DOSE 75 at 0 then 50 every 12 from 12 (ADDL 12), DUR 1, WT 57, CCR 41.39, ALB 24.4, APACHE 18, single measurement): 2590 ng/mL
- level at 150 h ([1]; patient ID 13, TIME 150, DOSE 75 at 0 then 50 every 12 from 12 (ADDL 12), DUR 1, WT 57, CCR 41.39, ALB 24.4, APACHE 18, single measurement): 1830 ng/mL
- level at 156 h ([1]; patient ID 13, TIME 156, DOSE 75 at 0 then 50 every 12 from 12 (ADDL 12), DUR 1, WT 57, CCR 41.39, ALB 24.4, APACHE 18, single measurement): 1090 ng/mL
- level at 50.5 h ([1]; patient ID 14, TIME 50.5, DOSE 100 at 0, 50 at 12, 24, 36, 50.8, DUR 1, WT 60, CCR 111.4, ALB 25.4, APACHE 25, single measurement): 1140 ng/mL
- level at 51.8 h ([1]; patient ID 14, TIME 51.8, DOSE 100 at 0, 50 at 12, 24, 36, 50.8, DUR 1, WT 60, CCR 111.4, ALB 25.4, APACHE 25, single measurement): 4060 ng/mL
- level at 57.8 h ([1]; patient ID 14, TIME 57.8, DOSE 100 at 0, 50 at 12, 24, 36, 50.8, DUR 1, WT 60, CCR 111.4, ALB 25.4, APACHE 25, single measurement): 1820 ng/mL
- level at 72.66 h ([1]; patient ID 15, TIME 72.66, DOSE 100 at 0, 50 at 12, 100 at 24, 75 at 36, 48, 60, WT 50, CCR 35.85, ALB 29.5, APACHE 39, single measurement): 3110 ng/mL
- level at 54.67 h ([1]; patient ID 19, TIME 54.67, DOSE 100 at 0 then 50 every 12 from 12 (ADDL 3), DUR 1, WT 60, CCR 35.69, ALB 25.6, APACHE 19, single measurement): 1860 ng/mL
- level at 60 h ([1]; patient ID 19, TIME 60, DOSE 100 at 0 then 50 every 12 from 12 (ADDL 3), DUR 1, WT 60, CCR 35.69, ALB 25.6, APACHE 19, single measurement): 1300 ng/mL
- level at 73.45 h ([1]; patient ID 20, TIME 73.45, DOSE 100 at 0 then 50 every 12 from 12 (ADDL 6), DUR 1.45, WT 75, CCR 84.86, ALB 29.5, APACHE 18, single measurement): 4270 ng/mL
- level at 77.45 h ([1]; patient ID 20, TIME 77.45, DOSE 100 at 0 then 50 every 12 from 12 (ADDL 6), DUR 1.45, WT 75, CCR 84.86, ALB 29.5, APACHE 18, single measurement): 2700 ng/mL
- level at 84 h ([1]; patient ID 20, TIME 84, DOSE 100 at 0 then 50 every 12 from 12 (ADDL 6), DUR 1.45, WT 75, CCR 84.86, ALB 29.5, APACHE 18, single measurement): 1960 ng/mL
- level at 50 h ([1]; patient ID 21, TIME 50, DOSE 150 at 0 then 75 every 12 from 12 (ADDL 4), DUR 2, WT 70, CCR 56.54, ALB 38.1, APACHE 40, single measurement): 7030 ng/mL
- level at 54 h ([1]; patient ID 21, TIME 54, DOSE 150 at 0 then 75 every 12 from 12 (ADDL 4), DUR 2, WT 70, CCR 56.54, ALB 38.1, APACHE 40, single measurement): 3830 ng/mL
- rate of reaching the standard polymyxin B exposure AUC at a typical clinical dose [2]: approximately 54.3%

— PMC10090446, “Population pharmacokinetic analysis and dosing optimization of polymyxin B in critically ill patients” (Frontiers in Pharmacology, 2023)
